We go through one compound from US10556860B2, “hTERT modulators and methods of use” (Arizona Board of Regents on Behalf of the University of …, priority 2015, dated 2020).

Broadly, the Kd is the equilibrium constant for the complex coming apart.

Structures are written as SMILES.

Assay [1] deals with WT 5-12 G-quadruplex of hTERT core promoter (FAM/TAMRA probe). The assay is described as follows: FRET assay for compound screening and Kd, WT probe. It counts as binding, human. As to the method: (§1) FRET assay for compound screening and determination of Kd value. FRET probes of WT, G124/125A, and G146A of the 5-12 G-quadruplex were synthesized and labeled with FAM (Ex. 490 nm/Em. 520 nm) and TAMRA (Ex. 560 nm/Em. 580 nm) at each end by MGW Operon Inc. The WT probe (50 nM) was annealed in a buffer containing 10 mM Tris-HCl (pH 7.5) and 5 mM KCl by heating at 95° C. for 5 min and slowly cooling to room temperature. Compounds (50 μM) and probe were incubated for 1 h at room temperature. The same volume of DMSO served as a control. For Kd value determination, the WT, G124/125A, and G146A probes were annealed, and then several concentrations of compound were treated for 1 h at room temperature. Dose-dependent fluorescence intensity at 520 nm was measured by a microplate reader (BioTek Synergy HT). The data were corrected with the blank signal of buffer and compound. The relative fluorescence intensity compared to DMSO was used for binding curve fitting to determine Kd value using GraphPad Prism software.
(§2) The hTERT core promoter region includes 12 runs of consecutive guanines that form two G-quadruplexes in tandem on the G-rich strand. […] When the G-quadruplex is folded, two fluorophores are in proximity, which leads to a decrease in FAM fluorescence. […]

In assay [2] the target is G124/125A 5-12 G-quadruplex of hTERT core promoter. The assay can be described thus: FRET assay for Kd, G124/125A probe. The format is binding, human. How it is done:
as §1, §2

The subject of assay [3] is G138/139A 5-12 G-quadruplex. The assay is described as follows: CD kinetics, temperature-jump, G138/139A. It counts as biochemical, human. The conditions noted are these: 2 equiv. As to the method: FIGS. 10A and 10B are a set of graphs showing (A) comparison of kinetics of initial folding rate of the WT 5-12 G-quadruplex with GTC365 and BRACO-19 by the temperature-jump method. (B) Enhanced initial folding rate of the 5-12 G-quadruplexes carrying different hTERT mutants by GTC365. The time-course CD signal of preheated oligo with compound or DMSO in a buffer containing 10 mM Tris-HCl (pH 7.5) and 5 mM KCl was monitored at 262 nm and 25° C.
For the kinetics analysis using the temperature-jump method, theoligo in a buffer containing 10 mM Tris-HCl (pH 7.5) was heated forl min at 95° C., and then a mixture of KCl and compound was addedand incubated for 1 min. Meanwhile, the CD cuvette was also heatedat 95° C. As soon as the sample in the CD cuvette at the hightemperature was placed in the CD chamber, a time-dependent CDsignal at 262 nm was recorded immediately. The initial folding ratewas determined by one-phase association curve fitting (eq 1) of thekinetics curve using GraphPad Prism 5: Y=Y0+(Plateau−Y0)*(1−e^−kx) (1) where Y is the CD signal at any time point x, Y0 is the Y value whentime (x) is zero, plateau is the Y value at infinite time, and k is the rateconstant.
To evaluate the comparative effects of GTC365 relative to BRACO-19 on the cooperative folding process, we carried out two different experiments. […]

Turning to `N=C(N)NCCCS(=O)(=O)Nc1ccc(Nc2c3ccccc3nc3cc([N+](=O)[O-])ccc23)cc1` [GTC365], the Kd in assay [1] (WT probe, FAM- and TAMRA-labeled oligomer) is ~400 nM; in assay [2] it was ~400 nM. Besides, the “reduction of fluorescence intensity (FRET)” value in assay [1] (compounds 50 μM, WT probe 50 nM, 10 mM Tris-HCl, 5 mM KCl, 1 h) is 94%. Besides, in assay [3], the “effect on initial folding rate” value is “insignificant”.
